The text below walks through data of patent publication US20240383905A1, “FGFR INHIBITORS AND METHODS OF USE THEREOF” (3H PHARMACEUTICALS CO., LTD., priority 2021, published 2024).

One assay addresses T1, FGFR1 (Homo sapiens, UniProt P11362).
T1 construct: purchased Carna 08-133
In words: FGFR1 Biochemical Caliper Assay (KinEASE-TK kit). The note with it: ratio FGFR1/FGFR2 of the biochemical assay. The procedure, abridged:
(§1)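 KinEASE-TK HTRF readout: enzyme at 0.2 nM (FGFR1, FGFR3) preincubated 10 min at RT with 10-point 3-fold compound dilutions before TK-substrate/ATP start.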

Another assay concerns SNU16 cells. As to the kind of experiment: SNU16 Cancer Cell Line Proliferation Assay (CellTiter-Glo). In kind it is cell-based. The note with it: Homo sapiens, SNU-16, 72 h. Summed up: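 Luminescent ATP read-out after 72 h at 37 °C gave IC50 values; compounds tested as 9 three-fold serial dilutions on 5000 SNU16 cells per well, with DMSO as control.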
Background: In ATP-based viability assays light output follows the ATP content of the culture.

For the next assay, the target named is T2, FGFR3 (Homo sapiens, UniProt P22607).
T2 construct: purchased Carna 08-135
As to the kind of experiment: FGFR3 Biochemical Caliper Assay (KinEASE-TK kit). The note with it: ratio FGFR3/FGFR2 of the biochemical assay. Summed up: as §1

The target of the next assay is T3, FGFR2 (Homo sapiens, UniProt P21802).
T3 construct: purchased Carna 08-134
In words: FGFR2 Biochemical Caliper Assay (KinEASE-TK kit). The note with it: 0.07 nM FGFR2; compound incubated with protein 10 min, reaction 45 min at RT; read-out: FGFR2 Cliper IC50.

pIC50: −log10 of the molar value.

T1 sequence (P11362 22-822): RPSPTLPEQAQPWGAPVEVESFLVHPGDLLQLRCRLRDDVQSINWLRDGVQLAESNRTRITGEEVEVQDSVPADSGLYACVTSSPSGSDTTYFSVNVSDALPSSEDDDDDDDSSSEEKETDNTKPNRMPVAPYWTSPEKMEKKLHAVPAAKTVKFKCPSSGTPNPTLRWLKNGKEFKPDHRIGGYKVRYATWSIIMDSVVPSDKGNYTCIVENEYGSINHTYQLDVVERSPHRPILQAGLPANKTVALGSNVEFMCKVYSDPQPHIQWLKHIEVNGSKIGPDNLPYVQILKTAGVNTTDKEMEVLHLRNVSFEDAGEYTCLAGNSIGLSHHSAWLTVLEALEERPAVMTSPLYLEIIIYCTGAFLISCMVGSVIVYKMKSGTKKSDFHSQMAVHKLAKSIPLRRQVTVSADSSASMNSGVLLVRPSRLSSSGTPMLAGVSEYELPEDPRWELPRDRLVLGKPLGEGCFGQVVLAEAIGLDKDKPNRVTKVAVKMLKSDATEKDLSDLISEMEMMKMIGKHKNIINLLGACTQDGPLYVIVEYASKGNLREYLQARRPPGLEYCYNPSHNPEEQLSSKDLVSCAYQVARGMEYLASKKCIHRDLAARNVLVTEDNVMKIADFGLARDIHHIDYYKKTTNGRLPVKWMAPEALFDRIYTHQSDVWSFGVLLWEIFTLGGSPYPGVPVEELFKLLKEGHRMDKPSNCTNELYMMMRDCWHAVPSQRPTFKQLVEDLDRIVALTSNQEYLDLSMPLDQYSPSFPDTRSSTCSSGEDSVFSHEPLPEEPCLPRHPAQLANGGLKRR
T2 sequence (P22607 23-806): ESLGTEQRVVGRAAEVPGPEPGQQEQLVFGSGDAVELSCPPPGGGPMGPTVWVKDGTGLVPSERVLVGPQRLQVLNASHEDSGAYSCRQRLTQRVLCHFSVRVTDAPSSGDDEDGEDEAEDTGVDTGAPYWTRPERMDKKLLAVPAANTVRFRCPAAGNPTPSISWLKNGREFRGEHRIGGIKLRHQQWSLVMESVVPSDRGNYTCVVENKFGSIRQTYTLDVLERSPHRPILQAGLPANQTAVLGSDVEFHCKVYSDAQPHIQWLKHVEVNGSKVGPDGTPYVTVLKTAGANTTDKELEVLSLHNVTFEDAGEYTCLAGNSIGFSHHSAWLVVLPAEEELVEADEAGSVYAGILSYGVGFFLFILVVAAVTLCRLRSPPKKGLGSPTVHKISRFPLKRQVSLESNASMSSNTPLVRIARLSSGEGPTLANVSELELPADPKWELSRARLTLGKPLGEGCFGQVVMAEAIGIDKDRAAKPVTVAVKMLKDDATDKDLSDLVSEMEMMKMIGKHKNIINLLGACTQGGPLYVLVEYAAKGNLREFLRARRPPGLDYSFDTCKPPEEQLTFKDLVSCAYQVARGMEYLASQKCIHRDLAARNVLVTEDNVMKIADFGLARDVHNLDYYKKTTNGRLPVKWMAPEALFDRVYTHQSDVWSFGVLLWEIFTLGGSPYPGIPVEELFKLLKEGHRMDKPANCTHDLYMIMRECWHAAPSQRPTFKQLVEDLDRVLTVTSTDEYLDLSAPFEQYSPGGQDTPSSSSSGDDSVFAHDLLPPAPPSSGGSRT
T3 sequence (P21802 22-821): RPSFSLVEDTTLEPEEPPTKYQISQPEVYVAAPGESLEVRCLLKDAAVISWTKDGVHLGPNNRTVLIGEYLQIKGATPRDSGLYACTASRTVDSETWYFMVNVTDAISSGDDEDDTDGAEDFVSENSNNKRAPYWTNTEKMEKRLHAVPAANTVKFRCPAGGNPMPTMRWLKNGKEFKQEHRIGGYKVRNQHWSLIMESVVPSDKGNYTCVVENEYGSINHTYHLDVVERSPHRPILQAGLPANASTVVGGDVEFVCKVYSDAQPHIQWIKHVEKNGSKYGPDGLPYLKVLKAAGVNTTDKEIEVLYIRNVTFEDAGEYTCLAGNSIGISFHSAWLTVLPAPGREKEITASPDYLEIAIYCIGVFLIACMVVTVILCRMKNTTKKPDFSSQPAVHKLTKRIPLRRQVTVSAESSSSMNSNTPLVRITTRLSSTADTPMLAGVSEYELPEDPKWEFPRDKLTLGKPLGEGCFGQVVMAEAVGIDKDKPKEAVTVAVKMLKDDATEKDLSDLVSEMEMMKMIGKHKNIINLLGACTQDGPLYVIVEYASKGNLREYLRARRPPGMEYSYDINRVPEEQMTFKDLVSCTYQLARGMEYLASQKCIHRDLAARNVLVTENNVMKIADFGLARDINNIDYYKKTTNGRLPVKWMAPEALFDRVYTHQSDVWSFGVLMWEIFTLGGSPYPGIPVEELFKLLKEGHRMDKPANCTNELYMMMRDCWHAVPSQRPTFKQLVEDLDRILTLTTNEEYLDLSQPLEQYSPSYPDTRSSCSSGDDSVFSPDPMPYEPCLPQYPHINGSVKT

As to `C=C(C)C(=O)Nc1ccc(-c2c(-c3ccc(Oc4nccc(C)n4)cc3)c3c(N)ncc(C#N)c3n2C)c(Cl)c1` [Compound 474, N-(4-(4-amino-7-cyano-1-methyl-3-(4-((4-methylpyrimidin-2-yl)oxy)phenyl)-1H-pyrrolo[3,2-c]pyridin-2-yl)-3-chlorophenyl)methacrylamide], the “Selectivity FGFR1/FGFR2” value at FGFR1 is recorded as “A+ (Selectivity of FGFR1/FGFR2 greater or equal to 500)”. In addition, the pIC50 in the assay with SNU16 cells is at least 8.00; on FGFR2, 8.00 to 8.30. Further, the “Selectivity FGFR3/FGFR2” value on FGFR3 is given as “A+ (Selectivity of FGFR3/FGFR2 greater or equal to 150)”.

On to `C=C(F)C(=O)Nc1ccc(-c2nn3ncnc(N)c3c2-c2ccc(C(=O)NC3CC3)c(OC)c2)c(Cl)c1` [Compound 199, 4-(4-amino-6-(2-chloro-4-(2-fluoroacrylamido)phe-nyl)pyrazolo[5,1-f][1,2,4]triazin-5-yl)-N-cyclopropyl-2-methoxybenzamide], for which the “Selectivity FGFR1/FGFR2” value at FGFR1 was “A+ (Selectivity of FGFR1/FGFR2 greater or equal to 500)”. In addition, the pIC50 is at least 8.00 in the assay with SNU16 cells and above 8.30 at FGFR2. In addition, the “Selectivity FGFR3/FGFR2” value at FGFR3 is recorded as “A+ (Selectivity of FGFR3/FGFR2 greater or equal to 150)”.

With `C=C(F)C(=O)Nc1ccc(-c2nn3ncnc(N)c3c2-c2ccc(C(=O)NC3CC3(F)F)c(OC)c2)c(F)c1` (centres unmarked) [Compound 271], at FGFR1, the “Selectivity FGFR1/FGFR2” value is “C (Selectivity of FGFR1/FGFR2 less than 200 but greater than or equal to 100)”. Further, the pIC50 in the assay on SNU16 cells was at least 8.00; on FGFR2, above 8.30. The “Selectivity FGFR3/FGFR2” value on FGFR3 was “B (Selectivity of FGFR3/FGFR2 less than 100 but greater than or equal to 25)”.

Regarding `C=CC(=O)Nc1ccc(-c2nn3ncnc(N)c3c2-c2ccc(NC(=O)C3CC(F)(F)C3)c(OC)c2)cc1` [Compound 340, N-(4-(6-(4-acrylamidophenyl)-4-aminopyrazolo[5,1-f][1,2,4]triazin-5-yl)-2-methoxyphenyl)-3,3-difluorocyclobutane-1-carboxamide], the “Selectivity FGFR1/FGFR2” value on FGFR1 is recorded as “B (Selectivity of FGFR1/FGFR2 less than 300 but greater than or equal to 200)”. In addition, the pIC50 was at least 8.00 with SNU16 cells and below 8.00 on FGFR2. On FGFR3, the “Selectivity FGFR3/FGFR2” value is “A (Selectivity of FGFR3/FGFR2 less than 150 but greater than or equal to 100)”.

As for `C=CC(=O)Nc1ccc(-c2[nH]c3c(C#N)cnc(N)c3c2-c2ccc(C(=O)NC3CC3)c(OC)c2)cc1` [Compound 23, 4-(2-(4-acrylamidophenyl)-4-amino-7-cyano-1H-pyrrolo[3,2-c]pyridin-3-yl)-N-cyclopropyl-2-methoxybenzamide], the “Selectivity FGFR1/FGFR2” value at FGFR1 is on record as “A+ (Selectivity of FGFR1/FGFR2 greater or equal to 500)”. Moreover, the pIC50 with SNU16 cells is at least 8.00; at FGFR2 it was above 8.30. In addition, on FGFR3, the “Selectivity FGFR3/FGFR2” value was “A (Selectivity of FGFR3/FGFR2 less than 150 but greater than or equal to 100)”.

For the molecule `C=C(F)C(=O)Nc1ccc(-c2nn3ncnc(N)c3c2-c2ccc(C(=O)NCC(F)(F)F)c(OC)c2)c(F)c1` [Compound 100, 4-(4-amino-6-(2-fluoro-4-(2-fluoroacrylamido)phenyl)pyrazolo[5,1-f][1,2,4]triazin-5-yl)-2-methoxy-N-(2,2,2-trifluoroethyl)benzamide], on FGFR1, the “Selectivity FGFR1/FGFR2” value is “A+ (Selectivity of FGFR1/FGFR2 greater or equal to 500)”. Further, the pIC50 in the assay with SNU16 cells is at least 8.00; at FGFR2, above 8.30. On FGFR3, the “Selectivity FGFR3/FGFR2” value is “A+ (Selectivity of FGFR3/FGFR2 greater or equal to 150)”.

Turning to `C=C(F)C(=O)Nc1ccc(-c2nn3ncnc(N)c3c2-c2ccc(C(=O)NC34CC(F)(C3)C4)c(OC)c2)c(F)c1` [Compound 427, 4-(4-amino-6-(2-fluoro-4-(2-fluoroacryl-amido)phenyl)pyrazolo[5,1-f][1,2,4]triazin-5-yl)-N-(3-fluorobicyclo [1.1.1]pentan-1-yl)-2-methoxybenzamide], the “Selectivity FGFR1/FGFR2” value at FGFR1 is reported as “A+ (Selectivity of FGFR1/FGFR2 greater or equal to 500)”. Also, the pIC50 was at least 8.00 in the assay on SNU16 cells and above 8.30 on FGFR2. In addition, on FGFR3, the “Selectivity FGFR3/FGFR2” value is “A (Selectivity of FGFR3/FGFR2 less than 150 but greater than or equal to 100)”.

Consider `C=CC(=O)Nc1ccc(-c2c(-c3ccc(NC(=O)C4CC4)c(OC)c3)c3c(N)ncc(C#N)c3n2C)cc1` [Compound 237], for which the “Selectivity FGFR1/FGFR2” value on FGFR1 is “B (Selectivity of FGFR1/FGFR2 less than 300 but greater than or equal to 200)”. Besides, the pIC50 was at least 8.00 in the assay with SNU16 cells and 8.00 to 8.30 at FGFR2. For the same molecule, the “Selectivity FGFR3/FGFR2” value at FGFR3 is “A+ (Selectivity of FGFR3/FGFR2 greater or equal to 150)”.

With `C=CC(=O)Nc1ccc(-c2[nH]c3c(C#N)cnc(N)c3c2-c2ccc(Oc3nccc(C)n3)c(OC)c2)cc1` [Compound 22, N-(4-(4-amino-7-cyano-3-(3-methoxy-4-((4-methylpyrimidin-2-yl)oxy)phenyl)-1H-pyrrolo[3,2-c]pyridin-2-yl)phenyl)acrylamide], at FGFR1, the “Selectivity FGFR1/FGFR2” value was “A (Selectivity of FGFR1/FGFR2 less than 500 but greater than or equal to 300)”. The pIC50 in the assay on SNU16 cells is at least 8.00; at FGFR2 it was above 8.30. Moreover, the “Selectivity FGFR3/FGFR2” value at FGFR3 is on record as “B (Selectivity of FGFR3/FGFR2 less than 100 but greater than or equal to 25)”.

Regarding `C=C(F)C(=O)Nc1ccc(-c2nn3ncnc(N)c3c2-c2ccc(C(=O)NC3(C(F)(F)F)CC3)c(OC)c2)c(F)c1` [Compound 356], on FGFR1, the “Selectivity FGFR1/FGFR2” value is listed as “A (Selectivity of FGFR1/FGFR2 less than 500 but greater than or equal to 300)”. The pIC50 with SNU16 cells was at least 8.00; on FGFR2, above 8.30. Moreover, the “Selectivity FGFR3/FGFR2” value at FGFR3 is “A (Selectivity of FGFR3/FGFR2 less than 150 but greater than or equal to 100)”.

In the case of `C=C(F)C(=O)Nc1ccc(-c2nn3ncnc(N)c3c2-c2ccc(C(=O)NCC(F)(F)F)c(OC)c2)c(OC)c1` [Compound 102, 4-(4-amino-6-(4-(2-fluoroacrylamido)-2-methoxyphenyl)pyrazolo[5,1-f][1,2,4]triazin-5-yl)-2-methoxy-N-(2,2,2-trifluoroethyl)benzamide], the “Selectivity FGFR1/FGFR2” value on FGFR1 is “B (Selectivity of FGFR1/FGFR2 less than 300 but greater than or equal to 200)”. The values for the pIC50 in the assay with SNU16 cells and at FGFR2 were at least 8.00 and below 8.00, respectively. Besides, the “Selectivity FGFR3/FGFR2” value on FGFR3 is reported as “B (Selectivity of FGFR3/FGFR2 less than 100 but greater than or equal to 25)”.

In the case of `C=CC(=O)Nc1ccc(-c2c(-c3ccc(Oc4nccc(C)n4)c(OC)c3)c3c(N)ncc(C(N)=O)c3n2C)cc1` [Compound 21, 2-(4-acrylamidophenyl)-4-amino-3-(3-methoxy-4-((4-methylpyrimidin-2-yl)oxy)phenyl)-1-methyl-1H-pyrrolo[3,2-c]pyridine-7-carboxamide], at FGFR1, the “Selectivity FGFR1/FGFR2” value is “A+ (Selectivity of FGFR1/FGFR2 greater or equal to 500)”. For the same molecule, the pIC50 was below 7.30 in the assay with SNU16 cells and above 8.30 at FGFR2. Also, the “Selectivity FGFR3/FGFR2” value at FGFR3 was “A (Selectivity of FGFR3/FGFR2 less than 150 but greater than or equal to 100)”.

As for `C=C(F)C(=O)Nc1ccc(-c2nn3ncnc(N)c3c2-c2ccc(C(=O)NC3(C(F)(F)F)CC3)c(OC)c2)c(C(F)(F)F)c1` [Compound 432], the “Selectivity FGFR1/FGFR2” value on FGFR1 is “B (Selectivity of FGFR1/FGFR2 less than 300 but greater than or equal to 200)”. Further, the values for the pIC50 in the assay on SNU16 cells and on FGFR2 were at least 8.00 and above 8.30, respectively. Also, the “Selectivity FGFR3/FGFR2” value on FGFR3 is “B (Selectivity of FGFR3/FGFR2 less than 100 but greater than or equal to 25)”.

With `C=CC(=O)Nc1ccc(-c2c(-c3ccc(Oc4nccc(C)n4)cc3)c3c(N)ncc(C#N)c3n2C)cc1` [Compound 69, N-(4-(4-amino-7-cyano-1-methyl-3-(4-((4-methylpyrimidin-2-yl)oxy)phenyl)-1H-pyrrolo[3,2-c]pyridin-2-yl)phenyl)acrylamide], the “Selectivity FGFR1/FGFR2” value at FGFR1 is reported as “A (Selectivity of FGFR1/FGFR2 less than 500 but greater than or equal to 300)”. Further, the pIC50 was at least 8.00 with SNU16 cells and above 8.30 on FGFR2. Moreover, on FGFR3, the “Selectivity FGFR3/FGFR2” value was “B (Selectivity of FGFR3/FGFR2 less than 100 but greater than or equal to 25)”.

Take `[2H]C([2H])([2H])Oc1cc(-c2c(-c3ccc(NC(=O)C(=C)F)cc3)nn3ncnc(N)c23)ccc1C(=O)NCC1(F)CC1` [Compound 372, 4-(4-amino-6-(4-(2-fluoroacrylamido)phe-nyl)pyrazolo[5,1-f][1,2,4]triazin-5-yl)-N-((1-fluorocyclo-propyl)methyl)-2-(methoxy-d3)benzamide]: at FGFR1, the “Selectivity FGFR1/FGFR2” value is “A+ (Selectivity of FGFR1/FGFR2 greater or equal to 500)”. Besides, the values for the pIC50 in the assay with SNU16 cells and on FGFR2 were at least 8.00 and above 8.30, respectively. For the same molecule, the “Selectivity FGFR3/FGFR2” value on FGFR3 is reported as “A+ (Selectivity of FGFR3/FGFR2 greater or equal to 150)”.

Take `C=CC(=O)Nc1ccc(-c2nn3ncnc(N)c3c2-c2ccc(C(=O)NCC3(C#N)CC3)c(OC)c2)cc1` [Compound 47, 4-(6-(4-acrylamidophenyl)-4-aminopyrazolo[5,1-f] [1,2,4]triazin-5-yl)-N-((1-cyanocyclopropyl)methyl)-2-methoxybenzamide]: on FGFR1, the “Selectivity FGFR1/FGFR2” value is given as “B (Selectivity of FGFR1/FGFR2 less than 300 but greater than or equal to 200)”. Further, the pIC50 in the assay with SNU16 cells is at least 8.00; on FGFR2, above 8.30. Further, the “Selectivity FGFR3/FGFR2” value at FGFR3 is recorded as “B (Selectivity of FGFR3/FGFR2 less than 100 but greater than or equal to 25)”.

Turning to `C=CC(=O)Nc1ccc(-c2nn3ncnc(N)c3c2-c2ccc(C(=O)NC3CC(F)(F)C3)c(OC)c2)cc1` [Compound 98, 4-(6-(4-acrylamidophenyl)-4-aminopyrazolo[5,1-f] [1,2,4]triazin-5-yl)-N-(3,3-difluorocyclobutyl)-2-methoxybenzamide], at FGFR1, the “Selectivity FGFR1/FGFR2” value is “A+ (Selectivity of FGFR1/FGFR2 greater or equal to 500)”. Further, the figures for the pIC50 with SNU16 cells and on FGFR2 were at least 8.00 and above 8.30, respectively. The “Selectivity FGFR3/FGFR2” value on FGFR3 is on record as “A+ (Selectivity of FGFR3/FGFR2 greater or equal to 150)”.

Usually pIC50 stands for −log10 of the IC50, conventionally taken in molar units.
